Data from US20240400555A1 (Initial Therapeutics, Inc., priority 2023, published 2024).
pIC50: −log10 of the molar value.

system: MV-4-11 cells; test: Cell Viability Assay in MV-4-11 Cells; assay type: cell-based; details: Homo sapiens, MV4-11, 72 h
In short: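 Luminescent ATP read-out (CellTiter-Glo) after 72 h compound treatment of MV-4-11 leukaemia cells (7,000 per well, IMDM plus 10% FBS). Values expressed relative to DMSO control and derived by four-parameter non-linear regression.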

For `Cn1cc(-c2ccc(C(=O)N(c3nccc4sc(-c5cccc(C(=O)Nc6ccccc6)c5)cc34)[C@@H]3CCCNC3)c(F)c2)nn1` [Example 540, 2-fluoro-4-(1-methyltriazol-4-yl)-N-[2-[3-(phenylcarbamoyl)phenyl]thieno[3,2-c]pyridin-4-yl]-N-[(3R)-3-piperidyl]benzamide], the pIC50 was 6.33.

same assay, conditions: Homo sapiens, MV4-11, 72 h, MV-4-11 cells, 72 h, Cell-Titer Glo; read-out: IC50

`Cc1csc2ccnc(N(C(=O)c3ccc(-c4cn(C)nn4)cc3F)[C@@H]3CCCNC3)c12` [Example 841, (R)-2-fluoro-4-(1-methyl-1H-1,2,3-triazol-4-yl)-N-(3-methylthieno[3,2-c]pyridin-4-yl)-N-(piperidin-3-yl)benzamide] and `Cc1ccc(F)c2ccnc(N(C(=O)c3ccc(-c4cn(C)nn4)cc3F)[C@@H]3CCCNC3)c12` [Example 761, (R)-2-fluoro-N-(5-fluoro-8-methylisoquinolin-1-yl)-4-(1-methyl-1H-1,2,3-triazol-4-yl)-N-(piperidin-3-yl)benzamide] are within 0.2 log units of each other in pIC50: 7.12 for the first, 7.16 for the second.

`[2H]C([2H])([2H])c1nnc(-c2ccc(C(=O)N(c3nccc4scc(C)c34)[C@@H]3CCCNC3)cc2)s1` [Example 894, N-(3-methylthieno[3,2-c]pyridin-4-yl)-N-[(3R)-3-piperidyl]-4-[5-(trideuteriomethyl)-1,3,4-thiadiazol-2-yl]benzamide] and `Cc1nnc(-c2ccc(C(=O)N(c3nccc4cccc(C)c34)[C@@H]3CCCNC3)nc2)s1` [Example 783, (R)-5-(5-methyl-1,3,4-thiadiazol-2-yl)-N-(8-methylisoquinolin-1-yl)-N-(piperidin-3-yl)picolinamide] are within 0.2 log units of each other in pIC50: 6.89 for the first, 6.74 for the second.

Compared with `Cc1cccc2ccnc(N(C(=O)c3ccc(Nc4nccc(N5CCCOCC5)n4)cc3F)[C@@H]3CCCNC3)c12` [Example 944, (R)-4-(4-(1,4-oxazepan-4-yl)pyrimidin-2-ylamino)-2-fluoro-N-(8-methylisoquinolin-1-yl)-N-(piperidin-3-yl)benzamide], `Cc1cccc2ccnc(N(C(=O)c3ccc(Nc4nccc(N5CCOCC5C#N)n4)cc3F)[C@@H]3CCCNC3)c12` (stereo partly drawn) [Example 955, 4-((4-(3-cyanomorpholino)pyrimidin-2-yl)amino)-2-fluoro-N-(8-methylisoquinolin-1-yl)-N—((R)-piperidin-3-yl)benzamide] is 0.25 log units higher in pIC50: 7.34 for the first, 7.59 for the second. The second is the more potent here.

`COCCNc1ccnc(Nc2ccc(C(=O)N(c3nccc4cccc(C)c34)[C@@H]3CCCNC3)c(F)c2)n1` [Example 744, (R)-2-fluoro-4-((4-((2-methoxyethyl)amino)pyrimidin-2-yl)amino)-N-(8-methylisoquinolin-1-yl)-N-(piperidin-3-yl)benzamide] and `Cc1ccnc(Nc2ccc(C(=O)N(c3nccc4cccc(C)c34)[C@@H]3CCCNC3)c(F)c2)n1` [Example 319, (R)-2-fluoro-N-(8-methylisoquinolin-1-yl)-4-((4-methylpyrimidin-2-yl)amino)-N-(piperidin-3-yl)benzamide] are within 0.2 log units of each other in pIC50: 7.16 for the first, 7.18 for the second.

Going from `Cc1nnc(-c2ccc(C(=O)N(c3nccc4cc(Cl)cc(C)c34)[C@@H]3CCCNC3)cn2)s1` [Example 709, (R)—N-(6-chloro-8-methylisoquinolin-1-yl)-6-(5-methyl-1,3,4-thiadiazol-2-yl)-N-(piperidin-3-yl)nicotinamide] to `Cc1nnc(-c2ccc(C(=O)N(c3nccc4cc(F)cc(C)c34)[C@@H]3CCCNC3)cn2)s1` [Example 647, N-(6-fluoro-8-methyl-1-isoquinolyl)-6-(5-methyl-1,3,4-thiadiazol-2-yl)-N-[(3R)-3-piperidyl] pyridine-3-carboxamide], the pIC50 falls from 7.10 to 6.89 (0.21 log units). The first is the more potent here.

Going from `Cc1cc(-c2cc3c(N(C(=O)c4ccc(-c5cn(C)nn5)cc4F)[C@@H]4CCCNC4)nccc3s2)ccc1C(N)=O` [Example 607, (R)—N-(2-(4-carbamoyl-3-methylphenyl)thieno[3,2-c]pyridin-4-yl)-2-fluoro-4-(1-methyl-1H-1,2,3-triazol-4-yl)-N-(piperidin-3-yl)benzamide] to `Cn1cc(-c2ccc(C(=O)N(c3nccc4sc(-c5ccncc5)cc34)[C@@H]3CCCNC3)c(F)c2)nn1` [Example 363, 2-fluoro-4-(1-methyltriazol-4-yl)-N-[(3R)-3-piperidyl]-N-[2-(4-pyridyl)thieno[3,2-c]pyridin-4-yl]benzamide], the pIC50 rises from 6.10 to 6.46 (0.36 log units).

Going from `COC(=O)c1ccc(-c2cc3c(N(C(=O)c4ccc(-n5nnc6cccnc65)cc4F)[C@@H]4CCCNC4)nccc3s2)cc1` [Example 375, methyl 4-[4-[[2-fluoro-4-(triazolo[4,5-b]pyridin-3-yl)benzoyl]-[(3R)-3-piperidyl]amino]thieno[3,2-c]pyridin-2-yl]benzoate] to `CC(C)n1cc(-c2cc3c(N(C(=O)c4ccc(-n5nnc6cccnc65)cc4F)[C@@H]4CCCNC4)nccc3s2)cn1` [Example 437, (R)-4-(3H-[1,2,3]triazolo[4,5-b]pyridin-3-yl)-2-fluoro-N-(2-(1-isopropyl-1H-pyrazol-4-yl)thieno[3,2-c]pyridin-4-yl)-N-(piperidin-3-yl)benzamide], the pIC50 rises from 6.22 to 6.42 (0.20 log units).

`Cc1cccc2ccnc(N(C(=O)c3ccc(Nc4nccc(N[C@H]5CC[C@H](O)CC5)n4)cc3F)[C@@H]3CCCNC3)c12` [Example 946, 2-fluoro-4-(4-((1r,4r)-4-hydroxycyclohexylamino)pyrimidin-2-ylamino)-N-(8-methylisoquinolin-1-yl)-N—((R)-piperidin-3-yl)benzamide] and `Cc1cccc2ccnc(N(C(=O)c3ccc(Nc4nccc(N(C)C5CCCC5)n4)cc3F)[C@@H]3CCCNC3)c12` [Example 948, 4-({4-[cyclopentyl(methyl)amino]pyrimidin-2-yl}amino)-2-fluoro-N-(8-methylisoquinolin-1-yl)-N-[(3R)-piperidin-3-yl]benzamide] are within 0.2 log units of each other in pIC50: 6.89 for the first, 6.82 for the second.

Going from `Cc1cccc2ccnc(N(C(=O)c3ccc(-n4nnc5cccnc54)cc3C(F)(F)F)[C@@H]3CCCNC3)c12` [Example 312, (R)-4-(3H-[1,2,3]triazolo[4,5-b]pyridin-3-yl)-N-(8-methylisoquinolin-1-yl)-N-(piperidin-3-yl)-2-(trifluoromethyl)benzamide] to `Cc1cccc2ccnc(N(C(=O)c3ccc(Nc4nccc(-c5cccnc5)n4)cc3F)[C@@H]3CCCNC3)c12` [Example 727, (R)-2-fluoro-N-(8-methylisoquinolin-1-yl)-N-(piperidin-3-yl)-4-((4-(pyridin-3-yl)pyrimidin-2-yl)amino)benzamide], the pIC50 rises from 5.59 to 7.49 (1.90 log units). The second is the more potent here.

Compared with `COc1nnc(-c2ccc(C(=O)N(c3nccc4cc(F)cc(C)c34)[C@@H]3CCCNC3)c(F)c2)s1` [Example 710, 2-fluoro-N-(6-fluoro-8-methyl-1-isoquinolyl)-4-(5-methoxy-1,3,4-thiadiazol-2-yl)-N-[(3R)-3-piperidyl]benzamide], `Cc1nsc(-c2ccc(C(=O)N(c3nccc4scc(C)c34)[C@@H]3CCCNC3)c(F)c2)n1` [Example 779, (R)-2-fluoro-4-(3-methyl-1,2,4-thiadiazol-5-yl)-N-(3-methylthieno[3,2-c]pyridin-4-yl)-N-(piperidin-3-yl)benzamide] is 0.25 log units higher in pIC50: 5.64 for the first, 5.89 for the second.

Going from `Cc1cccc2ccnc(N(C(=O)N3CCc4[nH]nc(-c5ccccc5)c4C3)[C@@H]3CCCNC3)c12` [Example 343, (R)—N-(8-methylisoquinolin-1-yl)-3-phenyl-N-(piperidin-3-yl)-1,4,6,7-tetrahydro-5H-pyrazolo[4,3-c]pyridine-5-carboxamide] to `Cc1cccc2ccnc(N(C(=O)c3ccc(-c4nnc(C5CC5)o4)cc3)[C@@H]3CCCNC3)c12` [Example 789, (R)-4-(5-cyclopropyl-1,3,4-oxadiazol-2-yl)-N-(8-methylisoquinolin-1-yl)-N-(piperidin-3-yl)benzamide], the pIC50 rises from 5.85 to 7.01 (1.16 log units).

Going from `Cn1cc(-c2ccc(C(=O)N(c3nccc4cc(-c5ccccc5O)ccc34)[C@@H]3CCCNC3)c(F)c2)nn1` [Example 493, (R)-2-fluoro-N-(6-(2-hydroxyphenyl)isoquinolin-1-yl)-4-(1-methyl-1H-1,2,3-triazol-4-yl)-N-(piperidin-3-yl)benzamide] to `COc1c(F)ccc2c(N(C(=O)c3ccc(-c4cn(C)nn4)cc3F)[C@@H]3CCCNC3)nccc12` [Example 874, 2-fluoro-N-(6-fluoro-5-methoxy-1-isoquinolyl)-4-(1-methyltriazol-4-yl)-N-[(3R)-3-piperidyl] benzamide], the pIC50 falls from 6.28 to 5.40 (0.88 log units). The first is the more potent here.

Compared with `Cc1cccc2ccnc(N(C(=O)c3ccc(Nc4ncc5ccsc5n4)cc3F)[C@@H]3CCCNC3)c12` [Example 823, (R)-2-fluoro-N-(8-methylisoquinolin-1-yl)-N-(piperidin-3-yl)-4-(thieno[2,3-d]pyrimidin-2-ylamino)benzamide], `Cc1cccc2ccnc(N(C(=O)c3ccc(Nc4nccc(N5[C@H](C)COC[C@H]5C)n4)cc3F)[C@@H]3CCCNC3)c12` [Example 939, 4-((4-((3R,5R)-3,5-dimethylmorpholino)pyrimidin-2-yl)amino)-2-fluoro-N-(8-methylisoquinolin-1-yl)-N—((R)-piperidin-3-yl)benzamide] is 0.27 log units higher in pIC50: 6.89 for the first, 7.16 for the second.

First: Cc1cccc2ccnc(N(C(=O)c3ccc(-c4cnn(C)c4)c(-c4cnn(C)c4)c3)[C@@H]3CCCNC3)c12 [Example 326, (R)-3,4-bis(1-methyl-1H-pyrazol-4-yl)-N-(8-methylisoquinolin-1-yl)-N-(piperidin-3-yl) benzamide]
Second: O=C(c1ccc(Nc2nccc(N3CCOCC3)n2)cc1F)N(c1nccc2cc(F)ccc12)[C@@H]1CCCNC1 [Example 560, (R)-2-fluoro-N-(6-fluoroisoquinolin-1-yl)-4-((4-morpholinopyrimidin-2-yl)amino)-N-(piperidin-3-yl)benzamide]
The pIC50 of the first is 0.51 log units higher: 7.17 for the first, 6.66 for the second.

same assay, conditions: MV-4-11 cells, 72 h, Cell-Titer Glo; read-out: IC50

For `Cn1cc(-c2ccc(C(=O)N(c3nccc4cc(-c5ccccc5)ccc34)[C@@H]3CCCNC3)c(F)c2)nn1` [Example 577, (R)-2-fluoro-4-(1-methyl-1H-1,2,3-triazol-4-yl)-N-(6-phenylisoquinolin-1-yl)-N-(piperidin-3-yl)benzamide], the pIC50 was 7.12.
